Test results: ChEMBL document CHEMBL3045222, “Synthesis of novel benzimidazole derivatives: as potent analgesic agent” (2013)

How the values were obtained:
Type in all cases: functional
Rattus norvegicus [1] = test: Analgesic activity in Rattus norvegicus (rat) assessed as time taken to withdraw tail in response to heat stress at 50 mg/kg, po after 30 min by tail flick method based analgesiometer analysis (reference value: 5.50 +/-0.43 secs)
Rattus norvegicus [2] = test: Analgesic activity in Rattus norvegicus (rat) assessed as time taken to withdraw tail in response to heat stress at 50 mg/kg, po after 120 min by tail flick method based analgesiometer analysis (reference value: 5.16 +/-0.31 secs)
Rattus norvegicus [3] = test: Analgesic activity in Rattus norvegicus (rat) assessed as time taken to withdraw tail in response to heat stress at 50 mg/kg, po after 60 min by tail flick method based analgesiometer analysis (reference value: 6.5 +/-0.22 secs)
Rattus norvegicus [4] = test: Analgesic activity in Rattus norvegicus (rat) assessed as time taken to withdraw tail in response to heat stress at 50 mg/kg, po after 90 min by tail flick method based analgesiometer analysis (reference value: 6.00 +/-0.36 secs)

| Structure (SMILES) | Time (Rattus norvegicus [1]) | Time (Rattus norvegicus [2]) | Time (Rattus norvegicus [3]) | Time (Rattus norvegicus [4]) |
| --- | --- | --- | --- | --- |
| CCCCn1c(-c2c(O)ccc3ccccc23)nc2ccc([N+](=O)[O-])cc21 | 6.66 s | 4.83 s | 6.5 s | 6 s |
| O=C(O)Cc1ccccc1Nc1c(Cl)cccc1Cl [DICLOFENAC] | 10.83 s | 7 s | 11.66 s | 10 s |
| CCCCn1c(-c2c(O)ccc3ccccc23)nc2ccc(OC)cc21 | 8.66 s | 6.66 s | 9.33 s | 7.66 s |
| Cn1c(-c2c(O)ccc3ccccc23)nc2ccc([N+](=O)[O-])cc21 | 10.5 s | 7 s | 11.5 s | 6.83 s |
| Cn1c(-c2c(O)ccc3ccccc23)nc2ccccc21 | 6.5 s | 5.16 s | 7 s | 6 s |
| CCCCn1c(-c2c(O)ccc3ccccc23)nc2ccccc21 | 10.66 s | 6.83 s | 10.5 s | 9.66 s |
| COc1ccc2nc(-c3c(O)ccc4ccccc34)n(C)c2c1 | 10.66 s | 6.83 s | 10.33 s | 8.5 s |
